Data as given in PMC12006171, “Marsupial cathelicidins: characterization, antimicrobial activity and evolution in this unique mammalian lineage” (Frontiers in Immunology, 2025).
Converted amounts (≈) assume the structure as drawn. Read-outs that look alike come from different tables or passages of the source. Where a SMILES comes first, the peptide text is derived from it.

Legend:
E. coli ATCC 25922 = test: Killing kinetics (time kill assay); type: cell-based, Escherichia coli; settings: MHB, 35°C, sampled 1-24 hours, n = 2
Method: The killing kinetics assay was conducted using mid-logarithmic phase cultures of E. coli ATCC 25922 and S. aureus ATCC 29213 in MHB. Cultures were adjusted to a 0.5 McFarland standard, diluted in MHB, and then 100µL was added to each culture tube containing 10mL pre-warmed MHB to give a final inoculum concentration of 5 x 10^5 CFU/mL. A sterility control of 100uL MHB, growth control (no cathelicidin), and vehicle control (DMSO) were also included. Furthermore, 10uL was immediately removed from the growth control tube, diluted 1/1000 in saline and 100µL plated onto MHA in duplicate to confirm inoculum density. To establish colony counts from 0 hours of cathelicidin treatment, 200µL was removed from each culture tube and serially diluted ten-fold in saline from 10^0 to […] in a total volume of 200µL. Then, 10µL of each dilution was spotted onto MHA in duplicate, which were incubated at 35°C for 24 hours.
All culture tubes were then incubated at 35°C static. At 1, 2, 4, 6, 8, 10, 12, and 24 hours post-cathelicidin treatment, 200µL was removed from each culture tube for dilution and plated on MHA as described above. […] Counts of duplicates were averaged, and the log10 CFU/mL graphed against time. This was used as input for one-way ANOVA (p < 0.05) followed by Dunnett’s post hoc test.

[1] = test system: Pseudomonas aeruginosa ATCC 27853; test: microbe, parasite or virus in culture; type: cell-based
Summary of the method: (§1)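 Broth microdilution per CLSI M07-A/M26A: DMSO-solubilized cathelicidin mature peptides at final 64-0.125μg/mL in Mueller Hinton broth (with or without 10% lysed horse blood, with or without calcium/magnesium), final inoculum 5 x 10^5 CFU/mL, 35°C for 20–24 hours. MIC = lowest concentration preventing visible growth.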

[2] = test system: Escherichia coli clinical isolate - animal; test: microbe, parasite or virus in culture; type: cell-based
Summary of the method: as §1

[3] = test system: Staphylococcus aureus clinical isolate - animal; test: microbe, parasite or virus in culture; type: cell-based; settings: clinical isolate - animal; read-out: MIC S. aureus
Summary of the method: as §1

[4] = test system: Escherichia coli ATCC 25922; test: microbe, parasite or virus in culture; type: cell-based
Summary of the method: as §1

[5] = test system: Staphylococcus aureus ATCC 29213; test: microbe, parasite or virus in culture; type: cell-based; settings: ATCC 29213; read-out: MIC S. aureus ATCC
Summary of the method: as §1

[6] = test system: Pseudomonas aeruginosa clinical isolate - animal; test: microbe, parasite or virus in culture; type: cell-based
Summary of the method: as §1

[7] = test system: Streptococcus pneumoniae ATCC 49619; test: microbe, parasite or virus in culture; type: cell-based; settings: ATCC 49619; read-out: MIC S. pneumoniae ATCC
Summary of the method: (§2)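 Broth microdilution per CLSI M07-A/M26A; peptides in DMSO, final 64-0.125 μg/mL, inoculum 5 x 10^5 CFU/mL. Bacteria in MHB ± 10% lysed horse blood ± Ca/Mg cations, yeasts in RPMI-1640 MOPS; 35°C for 20–24 h. MIC is lowest concentration without visible growth.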

[8] = test system: Streptococcus agalactiae Clinical isolate - animal; test: microbe, parasite or virus in culture; type: cell-based; settings: clinical isolate - animal; read-out: MIC S. agalactiae
Summary of the method: as §2

[9] = test system: Streptococcus agalactiae ATCC 12386; test: microbe, parasite or virus in culture; type: cell-based; settings: ATCC 12386; read-out: MIC S. agalactiae ATCC
Summary of the method: as §2

[10] = test system: six bacteria (S. aureus, E. coli, P. aeruginosa; ATCC and clinical isolate); type: cell-based
Summary of the method: as §1

[11] = test system: Candida albicans Clinical isolate - human; test: microbe, parasite or virus in culture; type: cell-based; settings: Clinical isolate - human; read-out: MIC C. albicans
Summary of the method: as §2

Candida krusei ATCC 6258 = test: microbe, parasite or virus in culture; type: cell-based; settings: ATCC 6258; read-out: MIC C. krusei ATCC
Summary of the method: as §2

[12] = test system: Candida parapsilosis ATCC 22019; test: microbe, parasite or virus in culture; type: cell-based; settings: ATCC 22019
Summary of the method: as §2

[13] = test system: Tasmanian devil facial tumor disease; settings: cited from earlier work
Excerpt: Many marsupial and monotreme cathelicidins were closely related to the classic cathelicidins found in eutherians. These cathelicidins sit within clade II in the phylogenetic tree, sister to eutherians but were not orthologous ( Figure 3 ). Classic marsupial cathelicidins were encoded in cluster A in the genome of all marsupials and monotremes studied, syntenic to the single cathelicidin gene/cluster in eutherians ( Figure 2 ). Many of these were antimicrobial and bactericidal, with MICs equal to or less than eutherian peptides such as cow BMAP-27 and -28 ([87]) and human LL-37, including again ...

[14] = test system: six bacteria (S. aureus, E. coli, P. aeruginosa; ATCC and clinical isolate); design: method as in 4 sources, ref Peel et al 2016 ||| ref Peel et al 2021 ||| ref Wang et al 2011 ||| ref Peel et al 2017; settings: mature peptide; Y/N summary from earlier study; ref Peel et al 2016; cited from earlier work
[15] = test system: three fungi (Candida krusei, Candida parapsilosis, Candida albicans); design: method as in 4 sources, ref Peel et al 2016 ||| ref Peel et al 2021 ||| ref Wang et al 2011 ||| ref Peel et al 2017; settings: mature peptide; Y/N summary from earlier study; ref Peel et al 2016; cited from earlier work
[16] = clinical isolate - animal, read-out: MIC P. aeruginosa
[17] = MHB without cations, 5 x 10^5 CFU/mL, 35°C 20–24 hours, duplicate
[18] = superscript value, cation-adjusted Mueller Hinton broth
[19] = value in brackets, 99.9% reduction in CFU/mL
[20] = clinical isolate, MHB without cations, 5 x 10^5 CFU/mL, 35°C 20–24 hours, duplicate
[21] = clinical isolate, superscript value, cation-adjusted Mueller Hinton broth
[22] = clinical isolate, value in brackets, 99.9% reduction in CFU/mL

CC[C@H](C)[C@H](NC(=O)[C@H](CC(=O)O)NC(=O)[C@H](CC(=O)O)NC(=O)CNC(=O)[C@H](CC(C)C)NC(=O)[C@H](CCCCN)NC(=O)[C@@H](NC(=O)[C@H](C)NC(=O)[C@H](CCCCN)NC(=O)[C@H](CCCNC(=N)N)NC(=O)[C@H](CCCCN)NC(=O)[C@H](CC(C)C)NC(=O)[C@H](CO)NC(=O)[C@H](CCC(=O)O)NC(=O)[C@H](Cc1c[nH]c2ccccc12)NC(=O)[C@H](CC(C)C)NC(=O)CNC(=O)[C@H](CCCNC(=N)N)NC(=O)[C@@H](N)CCCCN)[C@@H](C)O)C(=O)N[C@@H](CCCNC(=N)N)C(=O)N[C@@H](CC(N)=O)C(=O)N[C@H](C(=O)N[C@@H](CC(C)C)C(=O)N[C@@H](CCCNC(=N)N)C(=O)N[C@@H](CC(N)=O)C(=O)N[C@@H](Cc1ccccc1)C(=O)N[C@@H](CCCCN)C(=O)N[C@H](C(=O)N[C@@H](CCCCN)C(=O)N[C@H](C(=O)N1CCC[C@H]1C(=O)N[C@H](C(=O)N1CCC[C@H]1C(=O)N[C@@H](CCCNC(=N)N)C(=O)N[C@@H](CCC(N)=O)C(=O)N[C@@H](Cc1c[nH]c2ccccc12)C(=O)N1CCC[C@H]1C(=O)N[C@H](C(=O)N[C@@H](CCCNC(=N)N)C(=O)N[C@H](C(=O)O)C(C)C)[C@@H](C)CC)C(C)C)C(C)C)[C@@H](C)CC)[C@@H](C)O [MaruCath4] (H-KRGLWESLKRKATKLGDDIRNTLRNFKIKVPVPRQWPIRV-OH; N-terminus and C-terminus assumed)
Number of hours to cause a significant reduction in log CFU/mL of E. coli ATCC (p < 0.05) (E. coli ATCC 25922; 2x MIC): 4 hours
Number of hours to cause a significant reduction in log CFU/mL of E. coli ATCC (p < 0.05) (E. coli ATCC 25922; MIC): 4 hours
MIC ([1]; ATCC 27853, read-out: MIC P. aeruginosa ATCC): >13.2 µM
MBC E. coli ([2]; clinical isolate - animal): 6.6 (6.6)^6.6 µM
MIC E. coli ([2]; clinical isolate - animal): 6.6 (6.6)^6.6 µM
MIC in the presence of cations E. coli ([2]; clinical isolate - animal): 6.6 (6.6)^6.6 µM
MIC [3]: >13.2 µM
MIC E. coli ATCC ([4]; ATCC 25922): 1.6 (1.6)^1.6 µM
MIC in the presence of cations E. coli ATCC ([4]; ATCC 25922): 1.6 (1.6)^1.6 µM
MIC [5]: >13.2 µM
MIC [6, 16]: >13.2 µM
MIC [7]: >13.2 µM
MIC [8]: >13.2 µM
MIC [9]: >13.2 µM

CC[C@H](C)[C@H](NC(=O)[C@H](CCCCN)NC(=O)[C@@H](NC(=O)[C@H](CC(N)=O)NC(=O)[C@H](CCCCN)NC(=O)[C@H](CC(C)C)NC(=O)[C@H](CCCNC(=N)N)NC(=O)[C@H](CCCCN)NC(=O)[C@H](CCCCN)NC(=O)[C@@H](NC(=O)[C@H](CO)NC(=O)[C@H](CCCCN)NC(=O)CNC(=O)[C@H](CC(C)C)NC(=O)[C@H](CCCCN)NC(=O)[C@H](CCCCN)NC(=O)[C@H](CC(C)C)NC(=O)[C@H](CCCCN)NC(=O)[C@H](CCCCN)NC(=O)[C@H](CCCNC(=N)N)NC(=O)[C@H](CC(C)C)NC(=O)CNC(=O)[C@H](CCCNC(=N)N)NC(=O)[C@@H](N)CO)[C@@H](C)CC)[C@@H](C)CC)C(=O)NCC(=O)N[C@@H](Cc1ccc(O)cc1)C(=O)N[C@@H](CO)C(=O)N[C@H](C(=O)N1CCC[C@H]1C(=O)N[C@@H](Cc1ccccc1)C(=O)N1CCC[C@H]1C(=O)NCC(=O)O)[C@@H](C)CC [PspeCath1] (H-SRGLRKKLKKLGKSIKKRLKNIKIGYSIPFPG-OH; N-terminus and C-terminus assumed)
Number of hours to cause a significant reduction in log CFU/mL of E. coli ATCC (p < 0.05) (E. coli ATCC 25922; 0.5x MIC): 2 hours
Number of hours to cause a significant reduction in log CFU/mL of E. coli ATCC (p < 0.05) (E. coli ATCC 25922; 2x MIC): 1 hours
Number of hours to cause a significant reduction in log CFU/mL of E. coli ATCC (p < 0.05) (E. coli ATCC 25922; MIC): 2 hours
MIC against at least one strain [10]: 4 µg/mL (≈ 1.09 µM)
MBC P. aeruginosa ATCC ([1]; ATCC 27853): 2.1 (2.1)^2.1 µM
MIC P. aeruginosa ATCC ([1]; ATCC 27853): 2.1 (2.1)^2.1 µM
MIC in the presence of cations P. aeruginosa ATCC ([1]; ATCC 27853): 2.1 (2.1)^2.1 µM
MIC P. aeruginosa ATCC [1, 17]: 8 (8)^8 µg/mL
MIC in the presence of cations P. aeruginosa ATCC [1, 18]: 8 (8)^8 µg/mL
MBC P. aeruginosa ATCC [1, 19]: 8 (8)^8 µg/mL
MBC E. coli ([2]; clinical isolate - animal): 1 µM
MIC ([2]; clinical isolate - animal): 1 µM (≈ 3.65 µg/mL)
MIC in the presence of cations E. coli ([2]; clinical isolate - animal): 0.5 µM
MIC E. coli [2, 20]: 4 µg/mL (≈ 1.09 µM)
MIC in the presence of cations E. coli [2, 21]: 2 µg/mL
MBC E. coli [2, 22]: 4 µg/mL
MIC [3]: >17.5 µM
MBC E. coli ATCC ([4]; ATCC 25922): 2.1 µM
MIC ([4]; ATCC 25922, read-out: MIC E. coli ATCC): 1 µM (≈ 3.65 µg/mL)
MIC ([4]; ATCC 25922, read-out: MIC in the presence of cations E. coli ATCC): 1 µM
MIC E. coli ATCC [4, 17]: 4 µg/mL (≈ 1.09 µM)
MIC in the presence of cations E. coli ATCC [4, 18]: 4 µg/mL
MBC E. coli ATCC [4, 19]: 8 µg/mL
MIC [5]: >17.5 µM
MBC P. aeruginosa ([6]; clinical isolate - animal): 4.3 µM
MIC [6, 16]: 2.1 µM (≈ 7.67 µg/mL)
MIC ([6]; clinical isolate - animal, read-out: MIC in the presence of cations P. aeruginosa): 2.1 µM
MIC P. aeruginosa [6, 20]: 8 µg/mL (≈ 2.19 µM)
MIC in the presence of cations P. aeruginosa [6, 21]: 8 µg/mL
MBC P. aeruginosa [6, 22]: 16 µg/mL
MIC [11]: >17.5 µM
MIC [7]: >17.5 µM
MIC (Candida krusei ATCC 6258): >17.5 µM
MIC [8]: >17.5 µM
MIC [9]: >17.5 µM
MFC C. parapsilosis ATCC [12]: > 17.5 µM
MIC ([12]; read-out: MIC C. parapsilosis ATCC): 8.75 µM (≈ 32 µg/mL)

KIKRIGLGGFIGRILDRIRRLG [SahaCath5, Tasmanian devil cathelicidin, reference compound]
Toxicity to Tasmanian devil facial tumor disease [13]: toxic to Tasmanian devil facial tumor disease
Antibacterial (MIC <64ug/mL) [14]: Y (Peel et al 2016) (Antibacterial (MIC <64ug/mL))
Antifungal (MIC <64ug/mL) [15]: Y (Peel et al 2016) (Antifungal (MIC <64ug/mL))

KRIRFFERIRDRLRDLGNRIKNRIRDFFS [SahaCath6, Tasmanian devil cathelicidin, reference compound]
Toxicity to Tasmanian devil facial tumor disease [13]: toxic to Tasmanian devil facial tumor disease
Antibacterial (MIC <64ug/mL) [14]: Y (Peel et al 2016) (Antibacterial (MIC <64ug/mL))
Antifungal (MIC <64ug/mL) [15]: Y (Peel et al 2016) (Antifungal (MIC <64ug/mL))
